In brackets after ≈: the same amount, converted by molar mass.
conditions: buffer; pH 7.4; 200.0 µM

Compound	solubility kinetic [µg/mL]
CCOP(=O)(OCC)C(NC(=O)NC)C(N)=O (centres undefined)	30.4 (≈ 114 µM)
O=C1CCCc2ccccc2N1Cc1ccccc1	37.5 (≈ 149 µM)
COc1cccc(Oc2ccc(C(F)(F)F)cc2NC(=O)C2=COCCO2)c1	1.5 (≈ 3.79 µM)
COc1ccc2c(CCNC(N)=S)c[nH]c2c1	17.7 (≈ 71 µM)
COc1ccc(S(=O)(=O)NCCCc2ccccc2)cc1	40.8 (≈ 134 µM)
CCOc1ccc(NS(=O)(=O)c2cc(NC(=O)C3CC3)ccc2C)cc1Br	3 (≈ 6.62 µM)
CC(C)=NOc1nc(N(C)C)nc(N2CCOCC2)n1	41.9 (≈ 149 µM)
COc1ccc(OC)c2c(C)cc(N3CCCCCC3)nc12	6.3 (≈ 21 µM)
O=S(=O)(Cc1noc(-c2ccccc2Cl)n1)c1ccccn1	37.2 (≈ 111 µM)
CC(=O)NS(=O)(=O)c1ccc(NC(=O)c2ccc3c(c2)NC(=O)CS3)cc1	> 60.8
OCc1cc(-c2ccc(Cl)c(Cl)c2)on1	> 36.6
CC1CCCCN1Cc1c[nH]c2ccccc12 (centres undefined)	28.8 (≈ 126 µM)
Cc1ccc(Br)c(NS(=O)(=O)c2cccc(C(=O)N3CCNC(=O)C3)c2)c1	> 67.8
COc1ccc(Br)cc1CN(C)C(=O)C1CC(=O)N(C2CCCC2)C1 (centres undefined)	54.2 (≈ 132 µM)
Cc1cc(C)cc(NC(=O)Nc2cccnc2)c1	> 36.2
Cc1ccc(C2NC(=O)c3ccccc3O2)cc1 (centres undefined)	10.6 (≈ 44.3 µM)
CC(Sc1ncnc2sccc12)C(=O)Nc1ccc(S(N)(=O)=O)cc1 (centres undefined)	8.7 (≈ 22.1 µM)
Cc1ccc(C(C)C)c(OCCCCCN2CCOCC2)c1	12.8 (≈ 41.9 µM)
CSCCC(NC(=O)c1ccccc1)C(=O)N1CCN(C(=O)c2ccccc2)CC1 (centres undefined)	> 63.8
CC(NC(=O)NC(=O)c1ccc(Cl)cc1Cl)C1CC1 (centres undefined)	7.2 (≈ 23.9 µM)
CC(C)(C)c1ccc(C(=O)n2cnc3ccccc32)cc1	34.1 (≈ 123 µM)
N#Cc1c(F)cccc1N1CCC(C#N)CC1	> 34.4
COc1ccccc1CNC(=O)c1cc2ccccc2o1	10.1 (≈ 35.9 µM)
COc1ccccc1NC(=O)N1CCN(CCc2ccccc2)CC1	50.7 (≈ 149 µM)

Compound	solubility kinetic [µg/mL]
O=S(=O)(Nc1ccncc1Cl)c1cccc(Cl)c1Cl	> 50.6
Brc1cccc(CN2CCCCCC2)c1	15.2 (≈ 56.7 µM)
O=C(CS(=O)(=O)c1ccc(F)cc1)N1CCOCC1	> 43.1
Cc1cccc(C(=O)Nc2ccc(NC(=O)c3ccccc3)cc2)c1	1 (≈ 3.03 µM)
Cc1ccc(Cl)cc1NC(=O)CON=C(N)c1ccccc1	32.4 (≈ 102 µM)
CC(C)=CCN1CCN(Cc2cccc3c2OCO3)CC1CCO (centres undefined)	36.5 (≈ 110 µM)
O=C(NCCN1CCOCC1)c1ccc(Cl)nc1	> 40.5
COc1ccc(Cl)cc1C(=O)n1cnc2ccccc21	> 43
O=C(Nc1ccc2ncccc2c1)c1cccc(Br)c1	2.5 (≈ 7.64 µM)
COc1ccc(OC)c(C(C)NC(=O)C(C)Cc2ccccc2)c1 (centres undefined)	45.7 (≈ 140 µM)
OC(COc1ccc(Cl)cc1Cl)Cn1ccnc1 (centres undefined)	39.6 (≈ 138 µM)
COc1ccc(-c2csc3ncnc(NCCO)c23)cc1	> 45.2
Cc1ccc(CC2C(=O)N(c3ccc(F)cc3)C(=O)C2C)cc1 (centres undefined)	3.3 (≈ 10.6 µM)
COc1ccc(NC(=O)CN2CCCCCC2)cc1OC	32.2 (≈ 110 µM)
CN1OC[C@@H]2COc3ccc4ccccc4c3[C@@H]21	33.1 (≈ 137 µM)
OCCN(CC#CCn1c2ccccc2c2ccccc21)CCO	> 48.4
CC(C)c1ccccc1OCCNC(=O)c1cncc(Br)c1	36.4 (≈ 100 µM)
CC(C)N(Cc1ccccc1)C(=O)COc1ccccc1	36.6 (≈ 129 µM)
CC(=O)OC(C)C[N+](C)(C)C.[Cl-] (centres undefined)	> 29.4
CC(=O)N(c1cccc(C)c1)S(=O)(=O)c1ccc(Cl)cc1	32.7 (≈ 101 µM)
CCS(=O)(=O)c1ccccc1C(=O)NC1CCCc2ccccc21 (centres undefined)	42.6 (≈ 124 µM)
O=C(NC1CCCC1)c1cc(-c2ccccc2)on1	4 (≈ 15.6 µM)
O=C(O)c1ccc(NC(=O)C2(c3ccccc3)CCCC2)cc1	> 46.4
COc1cc(S(=O)(=O)N2CCN(C(=O)C3CC3)CC2)ccc1NC(C)=O	> 57.2

Compound	solubility kinetic [µg/mL]
c1cncc(CNc2nc(-c3cccnc3)nc3ccccc23)c1	> 47
COc1cccc2c1SCc1ccccc1C2CC(N)=O (centres undefined)	39.2 (≈ 131 µM)
CC(NC(=O)c1cc2ccccc2o1)c1ccccc1 (centres undefined)	37.6 (≈ 142 µM)
COCCCNC(=S)Nc1ccc(N2CCCCC2)cc1	> 46.1
O=[N+]([O-])c1ccc(NCc2ccccc2N2CCC(CO)CC2)nc1	12.4 (≈ 36.2 µM)
COCCCn1c(=O)cc(C)[nH]c1=S	> 32.1
O=c1c2ccccc2nc(-c2ccccc2F)n1-c1ccccc1	45.5 (≈ 144 µM)
CN(C(=O)COc1ncnc2sccc12)c1ccccc1	39.4 (≈ 132 µM)
Cc1cc(OC2CCCCC2)nc(NCc2ccccc2)n1	0.3 (≈ 1.01 µM)
c1ccc(-c2nnc(-c3ccccn3)c(-c3ccccn3)n2)nc1	> 46.8
Cc1ccc(CN2CCCC(C(=O)c3ccc4c(c3)OCO4)C2)cc1C (centres undefined)	25.4 (≈ 72.3 µM)
N#CC1(NC(=O)COC(=O)C2=COCCO2)CCCCC1	> 44.1
COC(=O)c1ccc(CNC(=O)CCC(=O)N2CCOCC2)cc1	> 50.2
Brc1cnc2nc(SCc3nc4ccccc4[nH]3)[nH]c2c1	1.2 (≈ 3.33 µM)
CCc1ccccc1Nc1nc(-c2cccnc2)cs1	3.6 (≈ 12.8 µM)
CC1CN(CC(O)COC2CCC(C(C)(C)C)CC2)CC(C)O1.Cl (centres undefined)	48.8
O=C(Nc1ccc(O)cc1)c1ccc(NC(=O)C2CCCO2)cc1 (centres undefined)	> 49
CC1(C)CC(NC(=S)Nc2ccc([N+](=O)[O-])cc2)CC(C)(C)N1	42.1 (≈ 125 µM)
COc1ccc(C(=O)Nc2ccc(C3(C#N)CCCC3)cc2)cc1OC	< 0.4
CC1CCCN(C2(O)C(=O)Nc3ccc([N+](=O)[O-])cc32)C1 (centres undefined)	16.6 (≈ 57 µM)
COCCCNc1nc2nonc2nc1NCCSC	37.1 (≈ 124 µM)
S=C(NCc1cccs1)Nc1cc(Cl)cc(Cl)c1	0.7 (≈ 2.21 µM)
CC1CCCCC1NC(=O)COC(=O)CNC(=O)c1cccc(F)c1 (centres undefined)	51.2 (≈ 146 µM)

Now from value to molecule:

solubility kinetic [µg/mL]	Compound
> 51.8	Cc1nc(SCC(=O)O)c(C#N)c(-c2ccco2)c1C(=O)N(C)C
> 55.3	CSc1sc(C(=O)N(C)C)c2c1S(=O)(=O)N(C)c1ccccc1-2
> 81.7	Cc1ccc2c(c1)C1C[N+](C)(CC(=O)Nc3ccccc3Cl)CCC1N2C(=O)c1ccccc1Cl.[Cl-] (centres undefined)
> 52.7	CC(=O)NCCc1nc2cc(NC(=O)Nc3ccccc3)ccc2n1C
10.4 (≈ 32.2 µM)	COc1ccc2[nH]cc(CCNC(=O)Nc3ccccc3C)c2c1
> 46.4	CC(=O)Nc1cccc(NS(=O)(=O)c2c(C)noc2C)c1
> 64.5	Cc1c(NC(=O)C(C)Oc2ccc(Br)cc2)c(=O)n(-c2ccccc2)n1C (centres undefined)
> 51.1	O=C(CSC1=Nc2ccccc2C2CC=NN12)NCc1ccco1 (centres undefined)
44.2 (≈ 130 µM)	Cc1cc(C)c(NC(=O)C2CCN(C(=O)c3ccco3)CC2)c(C)c1
33.7 (≈ 98.7 µM)	CCOc1ccccc1C(=O)NC(C(=O)Nc1cccnc1)C(C)C (centres undefined)
> 40.1	CCOC(=O)NC(=O)CSc1ccc(C)cc1C
52.6	CN1CCc2c(sc(NC(=O)Cc3ccc(F)cc3)c2C(N)=O)C1.Cl
> 55.6	Cc1ccc(C(=O)N/C(=C\c2cccs2)C(=O)N2CCOCC2)cc1C
22.3 (≈ 66.7 µM)	C/C(N)=C(/C#N)C(=O)COC(=O)c1ccccc1Cc1ccccc1
> 45.4	O=C(CSc1ccc2c(c1)OCCO2)Nc1cccnc1
31.7 (≈ 123 µM)	COc1ccccc1C(=O)Nc1nc(C)cc(C)n1
6.7 (≈ 18.3 µM)	COc1ccc(NC(=O)COC(=O)c2ccc3ccccc3n2)cc1OC
38.9 (≈ 149 µM)	COCC(=O)OCc1cc2cccc(C)c2[nH]c1=O
> 36.2	Cc1cc(N2C(=O)c3ccccc3C2=O)n(C)n1
> 51.5	CCCN(CC(=O)Nc1ccccc1OC)C(=O)c1ccc(=O)[nH]c1
26.2 (≈ 104 µM)	O=C(O)CCCCCNC(=O)/C=C/c1ccco1
> 45	CC(=O)N(c1ccc(Cl)cc1)c1nc(C)cc(C)c1C#N
30.6 (≈ 135 µM)	Cc1cc(C)cc(OC(=O)c2cccnc2)c1
9.6 (≈ 25.7 µM)	CN(Cc1ccccc1)C(=O)COC(=O)CCC(=O)c1ccc(Cl)cc1

solubility kinetic [µg/mL]	Compound
> 36.6	CCCc1c(O)nc(SCC(=O)O)[nH]c1=O
23 (≈ 62.4 µM)	COc1ccc(C(=O)NCC(=O)OCC(=O)N2CCc3ccccc32)cc1
49.1 (≈ 140 µM)	COc1ccc(CNC(=O)c2cc(SC)ccc2Cl)cc1OC
1.9 (≈ 7.03 µM)	CSC1=NCCN1C(=O)c1ccc2ccccc2c1
> 51.4	CCCCNS(=O)(=O)c1ccc2nc(SCC(N)=O)[nH]c2c1
4.2 (≈ 14 µM)	COc1ccccc1OCCn1c(=O)oc2ccc(C)cc21
36.6 (≈ 102 µM)	COCCNC(=O)c1ccccc1NC(=O)CSc1ccc(C)cc1
> 59.1	NC(=O)C1CCN(C(=O)c2cc(-c3ccccc3Cl)nc3ccccc23)CC1
44.1 (≈ 115 µM)	CCCN(CC(=O)Nc1cc(C)on1)CC(=O)Nc1ccc(F)c(F)c1F
> 43.5	O=C(O)c1cccnc1SCc1ccc([N+](=O)[O-])cc1
> 40.4	Cc1cc(C)n(/C(=C/N(C)C)C(=O)c2ccccc2)n1
> 68	COc1ccc(CC(=O)OC(C)C(=O)Nc2c(C)n(C)n(-c3ccccc3)c2=O)cc1OC (centres undefined)
> 47	Cc1c(C(=O)N(C)C(C)c2ccncn2)oc2c(F)cccc12 (centres undefined)
2.3 (≈ 4.79 µM)	Cc1onc(-c2c(F)cccc2Cl)c1C(=O)Nc1ccc(S(=O)(=O)N2CCOCC2)cc1
> 40.4	CC(C)Cc1csc(NC(=O)C(C)C)c1C(=O)O
> 47.2	Cc1cccc(C(=O)NCCC(=O)NCc2ccccc2F)c1
20.2 (≈ 77 µM)	COc1ccc(Cn2c(=O)cc(C)[nH]c2=S)cc1
> 50	COCCNC(=O)c1oc2ccc3c(c2c1C)C(O)CC(C)(C)O3 (centres undefined)
45 (≈ 143 µM)	CCCn1c(Oc2ccccc2)nc2c1c(=O)n(C)c(=O)n2C
4.1 (≈ 9.59 µM)	O=C(CSc1nc2ccccc2c(=O)n1Cc1ccc(F)cc1)NCC1CCCO1 (centres undefined)
> 47.9	CCOC(=O)c1c(O)c(O)c(C(=O)OCC)n1-c1ccccc1
47.1 (≈ 133 µM)	Cc1onc(-c2c(Cl)cccc2Cl)c1/C(N)=N/OC(=O)C1CC1
> 48.6	Cc1nnc(N2C(=O)c3ccc(Br)cc3C2=O)s1
27.9 (≈ 84.4 µM)	CSc1ncccc1C(=O)OCC(=O)NCCc1ccccc1

Reference: PubChem BioAssay AID1996
